{"source": "patent US5464861A", "about": "“2-thioindoles (selenoindoles) and related disulfides (selenides) which inhibit protein tyrosine kinases and which have antitumor properties” (Warner-Lambert, priority 1993, dated 1995)", "key": {"[1]": {"target": "T1, epidermal growth factor receptor tyrosine kinase (Homo sapiens, UniProt P00533)", "T1 construct": "A native 170,000 epidermal growth factor receptor-kinase complex from shed plasma membrane vesicles; endogenous in cells", "T1 sequence (P00533 25-1210)": "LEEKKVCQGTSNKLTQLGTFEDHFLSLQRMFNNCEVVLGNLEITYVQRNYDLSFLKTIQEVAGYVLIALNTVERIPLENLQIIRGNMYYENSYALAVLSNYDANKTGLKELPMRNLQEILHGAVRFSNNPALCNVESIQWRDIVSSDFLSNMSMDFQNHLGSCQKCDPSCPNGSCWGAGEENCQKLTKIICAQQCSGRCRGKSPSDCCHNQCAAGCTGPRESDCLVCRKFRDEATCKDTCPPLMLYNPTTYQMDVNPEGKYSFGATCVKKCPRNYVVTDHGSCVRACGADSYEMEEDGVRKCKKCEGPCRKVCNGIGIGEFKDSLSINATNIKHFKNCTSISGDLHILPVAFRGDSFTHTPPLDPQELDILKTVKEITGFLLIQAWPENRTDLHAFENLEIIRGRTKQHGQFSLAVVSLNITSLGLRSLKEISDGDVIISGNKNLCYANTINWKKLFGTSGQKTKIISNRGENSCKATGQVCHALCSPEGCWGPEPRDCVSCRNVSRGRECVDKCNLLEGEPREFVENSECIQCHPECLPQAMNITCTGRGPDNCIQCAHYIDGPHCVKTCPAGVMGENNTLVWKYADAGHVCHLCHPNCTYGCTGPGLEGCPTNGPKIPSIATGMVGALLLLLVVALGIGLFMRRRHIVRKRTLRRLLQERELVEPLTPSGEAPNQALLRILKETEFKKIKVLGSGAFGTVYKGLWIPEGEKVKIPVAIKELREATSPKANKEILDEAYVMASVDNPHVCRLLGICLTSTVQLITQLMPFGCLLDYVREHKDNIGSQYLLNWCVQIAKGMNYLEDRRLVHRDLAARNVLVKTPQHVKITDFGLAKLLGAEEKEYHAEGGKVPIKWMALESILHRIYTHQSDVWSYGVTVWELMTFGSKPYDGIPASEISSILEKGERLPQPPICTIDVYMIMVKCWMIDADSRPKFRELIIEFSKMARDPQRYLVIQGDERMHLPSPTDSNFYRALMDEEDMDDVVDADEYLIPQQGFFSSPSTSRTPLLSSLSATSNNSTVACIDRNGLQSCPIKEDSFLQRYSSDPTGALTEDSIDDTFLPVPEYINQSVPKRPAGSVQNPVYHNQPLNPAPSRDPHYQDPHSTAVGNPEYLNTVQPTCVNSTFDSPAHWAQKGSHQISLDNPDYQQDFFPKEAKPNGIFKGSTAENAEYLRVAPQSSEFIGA", "T1 sequence (P01133 971-1023 partner limits assumed)": "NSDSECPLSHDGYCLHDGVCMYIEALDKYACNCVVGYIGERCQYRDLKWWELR", "assay": "EGF receptor tyrosine kinase assay (P^32 incorporation in GAT)", "type": "biochemical", "settings": "for IC50: Table 2, EGRF-R, IC50 entries, read-out: IC50 (EGFR TK); for inhibition at 100 µM: EGRF-R, read-out: % Inhibition at 100 μM (EGFR TK)", "method_in_brief": "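Receptor pre-activated with 150 ng EGF for 10 min at room temperature. ATP with or without compound then added and incubated 10 min at room temperature.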"}, "[2]": {"target": "T2, human PDGF β receptor intracellular tyrosine kinase domain (Homo sapiens, UniProt P09619)", "T2 construct": "human PDGF β receptor intracellular tyrosine kinase domain; made in house; host or cells: SF9 insect cells, recombinant baculovirus; cell lysates used", "T2 sequence (P09619 554-1106 limits assumed)": "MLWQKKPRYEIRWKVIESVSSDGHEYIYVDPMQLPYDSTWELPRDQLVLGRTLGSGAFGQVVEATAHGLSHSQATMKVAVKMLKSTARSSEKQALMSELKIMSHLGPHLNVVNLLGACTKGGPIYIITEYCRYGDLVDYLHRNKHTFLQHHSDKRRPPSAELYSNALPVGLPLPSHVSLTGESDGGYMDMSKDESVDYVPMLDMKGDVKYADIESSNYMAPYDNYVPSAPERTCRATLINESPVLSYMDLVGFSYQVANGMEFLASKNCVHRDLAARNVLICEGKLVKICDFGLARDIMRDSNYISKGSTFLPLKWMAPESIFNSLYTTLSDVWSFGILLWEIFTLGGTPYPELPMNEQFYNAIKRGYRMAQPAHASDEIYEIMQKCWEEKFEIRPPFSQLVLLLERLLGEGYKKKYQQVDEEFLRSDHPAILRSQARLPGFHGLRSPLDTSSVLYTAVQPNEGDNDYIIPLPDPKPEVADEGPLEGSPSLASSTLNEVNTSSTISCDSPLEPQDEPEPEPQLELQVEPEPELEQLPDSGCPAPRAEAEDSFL", "assay": "PDGF receptor tyrosine kinase inhibition assay (P^32 incorporation in Glu-Tyr)", "type": "biochemical", "settings": "read-out: % Inhibition at 100 μM (PDGFR TK)", "procedure": "Recombinant baculovirus containing human PDGF β receptor intracellular tyrosine kinase domain was used to infect SF9 cells to overexpress the protein, and cell lysates were used for the assay. The ability of the tyrosine kinase to phosphorylate glutamate tyrosine substrate in the presence of P^32 -ATP and inhibitor was measured by counting the incorporation of P^32 in Glu-Tyr in TCAprecipitable material."}, "[3]": {"system": "Swiss 3T3 mouse fibroblasts", "assay": "Growth inhibition assay, Swiss 3T3 fibroblasts", "type": "cell-based", "procedure": "Swiss 3T3 mouse fibroblasts were maintained in dMEM/F12 media containing 10% fetal calf serum. […] The cells were grown at 37° C. under 5% CO2 for 72 hours and then counted by Coulter counter. The data were expressed as the concentration of inhibitor necessary to decrease the growth rate by 50%."}, "Swiss 3T3 fibroblasts": {"system": "Swiss 3T3 fibroblasts", "assay": "Growth factor mediated mitogenesis (tritiated thymidine incorporation)", "type": "cell-based", "settings": "Mus musculus, Swiss-3T3, 24 h", "method": "Swiss 3T3 fibroblasts, that were growth arrested in serum-free media for 24 hours, were exposed to various concentrations of compound for 2 hours. The cells were then exposed to individual growth factors for 24 hours and mitogenesis assessed by measuring tritiated thymidine incorporation into DNA.\nThe concentration of 21 and 70 required to inhibit growth factor mediated mitogenesis by 50% for the following growth factors was as follows: […]"}, "[4]": {"system": "bFGF mediated tyrosine phosphorylation", "assay": "bFGF mediated tyrosine phosphorylation, Western blot", "type": "cell-based, mouse", "method": "(§1) Swiss 3T3 fibroblasts, that were growth arrested in serum-free media for 24 hours, were exposed to various concentrations of compound for 2 hours. The cells were then exposed to individual growth factors for 5 minutes and proteins that were phosphorylated on tyrosine in response to the mitogens and were detected by Western blotting techniques using phosphotryosine antibodies. Similar techniques were used for tumor cell lines except the time in serum-free media was increased."}, "[5]": {"system": "human epidermoid carcinoma A431 cells", "settings": "J. Antibiot. 1986;39:170; cited from earlier work"}, "[6]": {"system": "human mammary carcinoma MCF-7 and some esophageal tumors", "settings": "nude mice, dose-dependent; cited from earlier work"}, "MDA 468 breast": {"system": "MDA 468 breast", "assay": "Growth inhibition assay, MDA 468", "type": "cell-based", "settings": "Homo sapiens, read-out: IC50 cell growth inhibition"}, "A431 epidermoid": {"system": "A431 epidermoid", "assay": "Growth inhibition assay, A431", "type": "cell-based", "settings": "Homo sapiens, A-431, read-out: IC50 cell growth inhibition"}, "A549 lung": {"system": "A549 lung", "assay": "Growth inhibition assay, A549", "type": "cell-based", "settings": "Homo sapiens, read-out: IC50 cell growth inhibition"}, "MDV-7 breast": {"system": "MDV-7 breast", "assay": "Growth inhibition assay, MDV-7", "type": "cell-based", "settings": "Homo sapiens, read-out: IC50 cell growth inhibition"}, "MDA-231 breast": {"system": "MDA-231 breast", "assay": "Growth inhibition assay, MDA-231", "type": "cell-based", "settings": "Homo sapiens, MDA-MB-231, read-out: IC50 cell growth inhibition"}, "HT-29 colon": {"system": "HT-29 colon", "assay": "Growth inhibition assay, HT-29", "type": "cell-based", "settings": "Homo sapiens, read-out: IC50 cell growth inhibition"}, "[7]": {"system": "EGF mediated phosphorylation of a variety of endogenous proteins", "assay": "EGF mediated tyrosine phosphorylation, Western blot", "type": "cell-based, mouse", "design": "dose or concentration left out as unconfirmed", "settings": "Swiss 3T3", "method": "as §1"}, "[8]": {"system": "PDGF mediated autophosphorylation of the PDGF receptor and tyrosine phosphorylation of other endogenous proteins", "assay": "PDGF mediated tyrosine phosphorylation, Western blot", "type": "cell-based, mouse", "design": "dose or concentration left out as unconfirmed", "settings": "Swiss 3T3", "method": "as §1"}, "[9]": {"system": "human tumor cell lines as well as the Swiss 3T3 fibroblasts", "assay": "Growth inhibition of a variety of human tumor cell lines", "type": "cell-based, human; mouse", "method": "Swiss 3T3 mouse fibroblasts were maintained in dMEM/F12 media containing 10% fetal calf serum. Two mL of cells at a density of 1×10^4/mL were placed in 24-well plates plus or minus various concentrations of the inhibitor. The cells were grown at 37° C. under 5% CO2 for 72 hours and then counted by Coulter counter. The data were expressed as the concentration of inhibitor necessary to decrease the growth rate by 50%."}, "[10]": {"settings": "Swiss 3T3, 72 hours, Table 2, read-out: IC50 growth inhibition"}, "[11]": {"settings": "Swiss-3T3, 72 h, read-out: IC50 growth inhibition"}}, "note": "Where two headings read alike, the source gives them in different places.", "data": [{"smiles": "Cn1c(SSc2c(C(=O)Nc3ccccc3)c3ccccc3n2C)c(C(=O)Nc2ccccc2)c2ccccc21", "note": "[Compound 70, bis [N-phenyl 1-methylindolyl-3-carboxamide-(2)] disulfide]", "values": [{"measurement": "IC50", "setting": "[1]", "value": 8.6, "unit": "µM"}, {"measurement": "inhibition at 100 µM", "setting": "[2]; at 100 μM, PDGF-R", "value": 1, "unit": "%"}, {"measurement": "IC50", "setting": "[3]; [10]", "value": 12, "unit": "µM"}, {"measurement": "IC50", "setting": "Swiss 3T3 fibroblasts; EGF", "value": 3, "unit": "µM"}, {"measurement": "IC50", "setting": "Swiss 3T3 fibroblasts; PDGF", "value": 4, "unit": "µM"}, {"measurement": "IC50", "setting": "Swiss 3T3 fibroblasts; bFGF", "value": 3, "unit": "µM"}, {"measurement": "IC50", "setting": "Swiss 3T3 fibroblasts; serum", "value": 3, "unit": "µM"}, {"measurement": "inhibition of bFGF mediated tyrosine phosphorylation (selectivity over EGF and PDGF)", "setting": "[4]; Swiss 3T3, as low as 2 mM", "value": "more selective and inhibited only bFGF mediated tyrosine phosphorylation"}]}, {"smiles": "O=CN/C=C/c1cc(O)ccc1O", "note": "[erbstatin]", "values": [{"measurement": "IC50 growth of A431 cells", "setting": "[5]", "value": 3.6, "unit": "µg/mL"}, {"measurement": "tumor growth inhibition", "setting": "[6]", "value": "inhibits the growth"}]}, {"smiles": "CN1C(=S)C(C(=O)Nc2ccccc2)c2ccccc21", "note": "(stereo not drawn) [Compound 21, N-phenyl (1-methyl-2-thioxo-3-indolinyl)carboxamide]", "values": [{"measurement": "IC50", "setting": "[1]", "value": 1, "unit": "µM"}, {"measurement": "IC50", "setting": "[3]; [10]", "value": 64, "unit": "µM"}, {"measurement": "IC50", "setting": "[3]; Swiss 3T3 fibroblasts, cell line table, read-out: IC50 cell growth inhibition", "value": 64, "unit": "µM"}, {"measurement": "IC50", "setting": "Swiss 3T3 fibroblasts; EGF", "value": 2, "unit": "µM"}, {"measurement": "IC50", "setting": "Swiss 3T3 fibroblasts; PDGF", "value": 8, "unit": "µM"}, {"measurement": "IC50", "setting": "Swiss 3T3 fibroblasts; bFGF", "value": 13, "unit": "µM"}, {"measurement": "IC50", "setting": "Swiss 3T3 fibroblasts; serum", "value": 19, "unit": "µM"}, {"measurement": "IC50", "setting": "MDA 468 breast", "value": 43, "unit": "µM"}, {"measurement": "IC50", "setting": "A431 epidermoid", "value": 62, "unit": "µM"}, {"measurement": "IC50", "setting": "A549 lung", "value": 30, "unit": "µM"}, {"measurement": "IC50", "setting": "MDV-7 breast", "value": 39, "unit": "µM"}, {"measurement": "IC50", "setting": "MDA-231 breast", "value": 15, "unit": "µM"}, {"measurement": "IC50", "setting": "HT-29 colon", "value": 55, "unit": "µM"}, {"measurement": "suppression of EGF mediated phosphorylation of a variety of endogenous proteins", "setting": "[7]", "value": "suppressed"}, {"measurement": "suppression of PDGF mediated autophosphorylation of the PDGF receptor and tyrosine phosphorylation of other endogenous proteins", "setting": "[8]", "value": "suppressed"}, {"measurement": "suppression of bFGF mediated tyrosine phosphorylation", "setting": "[4]; Swiss 3T3, 10 to 50 mM", "value": "suppressed"}, {"measurement": "growth inhibition in words", "setting": "[9]", "value": "growth inhibitory"}]}, {"smiles": "Cn1c(SSc2c(C(=O)Nc3ccccc3)c3cccnc3n2C)c(C(=O)Nc2ccccc2)c2cccnc21", "note": "[Compound 83, 2,2'-dithiobis [N-phenyl-1-methyl-7-azaindolyl-3-carboxamide]]", "values": [{"measurement": "IC50", "setting": "[1]", "value": 22.3, "unit": "µM"}, {"measurement": "inhibition at 100 µM", "setting": "[2]; at 100 μM, PDGF-R", "value": 57, "unit": "%"}, {"measurement": "IC50", "setting": "[3]; [10]", "value": 10, "unit": "µM"}]}, {"smiles": "CCn1c(SSc2c(C(=O)Nc3ccccc3)c3ccccc3n2CC)c(C(=O)Nc2ccccc2)c2ccccc21", "note": "[Compound 71, bis[N-phenyl 1-ethylindolyl-3-carboxamide-(2)]disulfide]", "values": [{"measurement": "inhibition at 100 µM", "setting": "[1]", "value": 20, "unit": "%"}, {"measurement": "inhibition at 100 µM", "setting": "[2]", "value": 5, "unit": "%"}, {"measurement": "IC50", "setting": "[3]; [11]", "value": 52, "unit": "µM"}]}, {"smiles": "CCOC(=O)Cc1c(SSc2c(CC(=O)OCC)c3ccccc3n2C)n(C)c2ccccc12", "note": "[Compound 33, bis[ethyl 1-methylindolyl-3-acetate-(2)]disulfide]", "values": [{"measurement": "IC50", "setting": "[1]", "value": 39, "unit": "µM"}, {"measurement": "inhibition at 100 µM", "setting": "[2]; at 100 μM, PDGF-R", "value": 16.7, "unit": "%"}, {"measurement": "IC50", "setting": "[3]; [11]", "value": 3, "unit": "µM"}]}, {"smiles": "Cc1cccc2c1c(C(=O)Nc1ccccc1)c(SSc1c(C(=O)Nc3ccccc3)c3c(C)cccc3n1C)n2C", "note": "[Compound 75, bis[N-phenyl 1,4-dimethylindolyl-3-carboxamide-(2)]disulfide]", "values": [{"measurement": "inhibition at 100 µM", "setting": "[1]", "value": 6, "unit": "%"}, {"measurement": "inhibition at 100 µM", "setting": "[2]; at 100 μM, PDGF-R", "value": 3, "unit": "%"}, {"measurement": "IC50", "setting": "[3]; [10]", "value": 4, "unit": "µM"}]}]}
